Our source for the ED50 values is patent US4230879A, “15-Deoxy-16-hydroxy-16-formyo or dimethoxy-methyl-prostane derivatives of the E and F series” (American Cyanamid Company, priority 1979, dated 1980).

One may read the ED50 as the midpoint of the dose-response relation.

Structures are written as SMILES.

The test concerns Histamine. Description: KONZETT (Histamine). Conditions: spasmogen histamine. The test is classed as in vivo.

Turning to `CCCCC(O)(C=O)C/C=C/[C@H]1[C@H](O)CC(=O)[C@@H]1CCCCCCC(=O)O` (relative stereo) [dl-11α,16α/β-dihydroxy-9-oxo-16-formyl-13-trans-prostenoic acid], the ED50 is 8.89 µg/kg.
